≈ marks a conversion by molar mass, not a printed value. Where “and” joins values, the source holds several entries; their conditions need not be identical. Equal values may be shown once. Entries after “also recorded” stand apart in the source; their conditions may differ. Each block holds one compound with its values, some of them ahead of it.
What was measured:
[1] = system: Microsporum canis, B68128 Janssen strain; experiment: Antimicrobial screening panel: Microsporum canis; type: cell-based
Experimental: (§1) Fractions and isolated compounds were evaluated for antimicrobial activity in an integrated screening panel, also including the human MRC-5 cell line to assess selectivity, as reported before ([Cos et al., 2006]; [Mesia et al., 2008]; [Baldé et al., 2010]; [Amin et al., 2016]).

[2] = biological target: T1, α-glucosidase from Saccharomyces cerevisiae (Saccharomyces cerevisiae, UniProt P53341); experiment: α-glucosidase inhibition assay; type: biochemical; design: inhibition: dose or concentration left out as unconfirmed; conditions: read-out: α-glucosidase % inhibition
T1 construct: purchased Sigma-Aldrich
T1 sequence (P53341 whole entry): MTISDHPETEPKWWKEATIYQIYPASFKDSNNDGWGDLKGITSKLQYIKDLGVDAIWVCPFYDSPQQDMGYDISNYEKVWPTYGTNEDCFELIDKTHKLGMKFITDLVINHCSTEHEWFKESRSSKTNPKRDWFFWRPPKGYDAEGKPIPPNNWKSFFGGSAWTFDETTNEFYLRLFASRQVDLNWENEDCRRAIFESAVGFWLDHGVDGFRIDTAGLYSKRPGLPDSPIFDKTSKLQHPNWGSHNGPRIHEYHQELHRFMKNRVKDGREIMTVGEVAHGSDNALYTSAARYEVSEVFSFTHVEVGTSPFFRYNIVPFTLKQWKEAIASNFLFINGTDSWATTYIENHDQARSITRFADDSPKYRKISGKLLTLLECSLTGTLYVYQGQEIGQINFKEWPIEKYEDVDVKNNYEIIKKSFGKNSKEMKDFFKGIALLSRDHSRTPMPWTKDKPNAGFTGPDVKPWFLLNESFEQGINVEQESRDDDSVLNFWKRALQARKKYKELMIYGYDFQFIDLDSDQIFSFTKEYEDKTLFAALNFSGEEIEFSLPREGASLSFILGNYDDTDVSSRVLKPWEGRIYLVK
Experimental: The α-glucosidase assay was carried out according as reported before ([Amin et al., 2016]). The test protocol is attached as Supplementary Material ([Amin et al., 2016]).
81 Inhibition of α-glucosidase.
82 α-Glucosidase inhibitory activity was assayed according to method adopted by Choudhary et al.
83 (2010) with some modifications. Briefly, 50 µL of a solution of α-glucosidase from
84 Saccharomyces cerevisiae (0.2 U/mL in 0.1 M phosphate buffer at pH 6.8, Sigma-Aldrich, St.
85 Louis, MO, USA) was incubated with 20 μL of test compounds or extracts at different
86 concentrations (ranging from 6 mM – 0.372 mM in 25% DMSO for isolated constituents or
87 from 5 mg to 0.039 mg/mL for extracts) at 37 °C for 10 min. Then 50 μl of the substrate,
88 p-nitrophenyl-α-D-glucopyranoside (0.7 mM stock, final concentration 0.29 mM) was added to
89 the reaction mixture and incubated again for 30 min at 37 °C. […]
91 from 834 µg to 6.5 µg/mL for extracts. The reaction was stopped by adding Na2CO3 (100 μl,
92 200 mM stock) solution and the absorbance was measured at 400 nm. Final DMSO
93 concentration remained below 7.5% during the assay.
94 concentration) was used as reference compound.
96 The % inhibition was calculated using the following formula:
98 % Inhibition = 100 – [OD (test sample) / OD (control)] × 100
100 Alpha-glucosidase inhibition was categorized as mild (1-25%), moderate (26-50%), high

[3] = system: formation of AGEs (BSA-MGO); experiment: BSA-MGO antiglycation assay; type: biochemical
Experimental: (§2) The BSA-glucose and BSA-MGO antiglycation assays were performed as reported before ([Amin et al., 2016]). The test protocol is attached as Supplementary Material ([Amin et al., 2016]).
60 Protein-glyoxal interaction (BSA-MGO assay)
61 The antiglycation assay using methylgloxyl (MGO) was performed according to the method
62 developed by Peng et al. (2007) with slight modifications. Briefly, methylglyoxal (135 μL, 5.75
63 mM) was incubated with BSA (135 μL, 10 mg/mL) dissolved in phosphate buffer (50 mM, pH
64 7.4, containing sodium azide (0.02%), added to prevent bacterial growth) and test compounds
65 (30 μL) at different final concentrations (1.5 – 0.023 mM) in 100% DMSO. The reaction
66 mixture was incubated at 37 °C for one week. Control solutions only contained methylglyoxal
67 (135 μL, 5.75 mM) BSA (135 μL, 1 0mg/mL) and DMSO (100%) only. The blank samples of
68 similar composition were also prepared simultaneously and kept at 4 °C for one week. The
70 440) due to formation of AGEs was monitored by spectrofluorometry (Tecan® Infinite M200,
71 Giessen, The Netherlands). Aminoguanidine (3-0.046 mM final concentration) was used as
72 reference compound. The AGEs inhibition was calculated as
74 % AGEs inhibition = [1–(S–Sb)/(C–Cb)] x 100
76 where S and C were fluorescence of test samples (in DMSO) and control (test mixtures
77 containing only DMSO) incubated at 37 °C, and where Sb and Cb were fluorescence for
78 samples incubated at 4 °C.
79 using Sigma plot® 13.0.

15-LOX from soybean = biological target: T2, 15-LOX from soybean (Glycine max, UniProt P08170); experiment: 15-lipoxygenase inhibition assay; type: biochemical; conditions: at the highest test concentration
T2 sequence (P08170 1-839): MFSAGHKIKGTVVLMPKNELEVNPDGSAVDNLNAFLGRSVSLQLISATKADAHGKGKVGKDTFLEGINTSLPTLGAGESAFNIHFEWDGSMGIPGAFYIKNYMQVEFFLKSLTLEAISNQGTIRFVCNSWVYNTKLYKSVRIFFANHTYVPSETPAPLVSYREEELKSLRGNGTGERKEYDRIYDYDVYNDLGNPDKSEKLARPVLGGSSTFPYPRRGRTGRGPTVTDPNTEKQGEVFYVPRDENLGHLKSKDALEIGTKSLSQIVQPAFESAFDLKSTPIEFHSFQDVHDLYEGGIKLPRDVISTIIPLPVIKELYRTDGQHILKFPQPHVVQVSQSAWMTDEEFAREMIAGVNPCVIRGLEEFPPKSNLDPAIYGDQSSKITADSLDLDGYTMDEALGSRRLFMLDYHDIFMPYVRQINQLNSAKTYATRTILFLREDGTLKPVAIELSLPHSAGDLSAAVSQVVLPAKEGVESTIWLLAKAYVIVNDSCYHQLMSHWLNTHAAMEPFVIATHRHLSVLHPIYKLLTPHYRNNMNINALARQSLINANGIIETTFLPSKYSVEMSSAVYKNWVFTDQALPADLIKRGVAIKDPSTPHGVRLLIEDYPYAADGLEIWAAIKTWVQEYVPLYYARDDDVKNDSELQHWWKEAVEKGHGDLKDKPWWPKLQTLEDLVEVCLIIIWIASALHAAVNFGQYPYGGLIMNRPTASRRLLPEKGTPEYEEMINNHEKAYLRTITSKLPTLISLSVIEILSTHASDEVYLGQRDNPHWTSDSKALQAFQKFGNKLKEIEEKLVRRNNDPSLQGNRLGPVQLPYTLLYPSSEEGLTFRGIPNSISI
Experimental: The soybean LOX assay is used as an indication of anti-inflammatory activity ([Muller, 1994]), and therefore during the present investigation, 15-LOX from soybean was used for peroxidation of linoleic acid, and inhibition was measured as described previously with slight modifications ([Malterud and Rydland, 2000]). Briefly, 12.5 μL (2–0.062 mM) of sample was dissolved in DMSO, and added to 487.5 μL of enzyme solution (200 U/mL). The mixture was incubated at room temperature for 5 min. Absorbance was recorded immediately after the addition of 500 μL of substrate (250 μM linoleic acid in 0.2 M borate buffer, pH 9) every minute up to 5 min at 234 nm.
% inhibition of enzyme activity was calculated as,
%inhibition of enzyme activity=([ΔA1/Δt]−[ΔA2/Δt])/(ΔA1/Δt)×100
where ΔA1/Δt and ΔA2/Δt are the increase rate in absorbance at 234 nm for sample without test substance and with test substance, respectively.

[4] = system: formation of AGEs (BSA-glucose); experiment: BSA-glucose antiglycation assay; type: biochemical; conditions: for IC50: read-out: Protein glycation BSA-Glucose IC50
Experimental: as §2
28 Antiglycation assay (BSA-Glucose assay)
29 In the BSA-glucose assay the prevention of AGEs formation is investigated by determining the
30 fluorescence of the complex formed after incubation of a sugar (glucose) with protein (BSA) in
31 the presence or absence of test compounds. The antiglycation assay was performed according to
32 the method developed by Matsuura et al. (2002) with minor modifications. […]
37 DMSO. The mixtures were incubated at 60°C for 48 h. After incubation, the reaction mixture
38 was allowed to cool down at room temperature. Then 100 µL reaction mixture was transferred
39 to a new plastic tube (1.5 mL) and the reaction was stopped by adding 10 μL of 100% (w/v)
40 trichloroacetic acid (TCA) and to precipitate proteins. The TCA-added mixture was kept at 4°C
41 for 10 min, followed by centrifugation (14000 rpm, 4 °C, 4 min). The supernatant containing
42 unreacted D-glucose, test sample and interfering substances was discarded, whereas the
44 8.1 mM Na2HPO4, 2.68 mM KCl, 1.47 mM KH2PO4, […]). The change in fluorescence
46 of AGEs was monitored by spectrofluorometry (Tecan™ Infinite M200, Giessen, The
47 Netherlands). In order to eliminate interference by autofluorescence of the test compounds, a
48 parallel incubation of test substance with BSA at 60°C without D-glucose was performed for all
50 final concentration) were used as reference compounds.
51 The AGEs inhibition was calculated as
55 where F is the fluorescence intensity.
56 calculated using Sigma plot® 13.0.

Escherichia coli = experiment: Antimicrobial screening panel: Escherichia coli; type: cell-based
Experimental: as §1

[5] = system: Trypanosoma cruzi, Tulahuen LacZ, clone C4; experiment: Antimicrobial screening panel: Trypanosoma cruzi; type: cell-based
Experimental: as §1

[6] = system: Leishmania infantum, MHOM/MA/67/ITMAP263; experiment: Antimicrobial screening panel: Leishmania infantum; type: cell-based
Experimental: as §1

[7] = system: AAPH induced linoleic acid peroxidation; experiment: Inhibition of linoleic acid lipid peroxidation, AAPH assay; type: biochemical; conditions: slope of inhibition time (Tinh) vs. concentration of antioxidant
Experimental: The inhibition of linoleic acid lipid peroxidation was studied according to [Liegeois et al. (2000)] and [Rajic et al. (2010)]. Briefly, 10 μL of a 16 mM linoleic acid dispersion and 10 μL of the test compound (8-1 μM final concentration) were added to the UV cuvette containing 0.93 mL of 0.05 M phosphate buffer, pH 7.4. The oxidation reaction was initiated under air by the addition of 50 μL (40 mM) of AAPH solution. The rate of oxidation at 37°C was monitored by recording the increase of absorption at 234 nm caused by conjugated diene hydroperoxides. The results were compared to the standard inhibitor (Trolox). The AOP is defined as the slope of the curve representing the inhibition time of oxidation (Tinh) vs. the concentration of antioxidant and is expressed in min/μM.

[8] = system: Trypanosoma brucei, Squib 427; experiment: Antimicrobial screening panel: Trypanosoma brucei; type: cell-based
Experimental: as §1

IC50 [1]: 1.38 µM
SMILES: CN(C/C=C/C#CC(C)(C)C)Cc1cccc2ccccc12 [terbinafin]

SMILES: CC1(O)C(Cl)C(O)C2(O)C=COC(OC3OC(CO)C(O)C(O)C3O)C12 (centres unmarked) [Compound 4, Linarioside]
inhibition [2]: 29%
Protein glycation BSA-MGO % inhibition ([3]; isolated constituents, highest test concentration): 9%
15-LOX assay % inhibition (15-LOX from soybean): 8%
Protein glycation BSA-Glucose % inhibition ([4]; isolated constituents, at the highest test concentration of 3 mM): did not present any activity; also recorded: no activity

IC50 (Escherichia coli): 2.42 µM
SMILES: O=C(N[C@H](CO)[C@H](O)c1ccc([N+](=O)[O-])cc1)C(Cl)Cl [chloramphenicol]

SMILES: O=C(Cn1ccnc1[N+](=O)[O-])NCc1ccccc1 [benznidazol, reference compound]
IC50 [5]: 2.13 µM

IC50 [6]: 9.02 µM
SMILES: CCCCCCCCCCCCCCCCOP(=O)([O-])OCC[N+](C)(C)C [miltefosine]

SMILES: N=C(N)NN [Aminoguanidine, reference compound]
IC50 ([3]; read-out: Protein glycation BSA-MGO IC50): 150 µM
IC50, BSA-glucose assay ([4]; fractions and positive control): 199 µg/mL (≈ 2690 µM)
IC50 [4]: 1750 µM

SMILES: Cc1c(C)c2c(c(C)c1O)CCC(C)(C(=O)O)O2 (centres unmarked) [Trolox, reference compound]
AAPH assay AOP (antioxidant power) [7]: 14.12 min/μM and 14.12^c min/μM

IC50 [8]: 0.03 µM
SMILES: Cc1ccc(C(=O)Nc2ccc(S(=O)(=O)O)c3cc(S(=O)(=O)O)cc(S(=O)(=O)O)c23)cc1NC(=O)c1cccc(NC(=O)Nc2cccc(C(=O)Nc3cc(C(=O)Nc4ccc(S(=O)(=O)O)c5cc(S(=O)(=O)O)cc(S(=O)(=O)O)c45)ccc3C)c2)c1 [suramine]

IC50 [4]: 230 µM
SMILES: O=c1c(O)c(-c2ccc(O)c(O)c2)oc2cc(O)cc(O)c12 [Quercetin, reference compound]
